# Test results taken from US20150307841A1, “Composition for Promoting Differentiation and Proliferation of Neural Stem Cell and Neural Precursor Cell” (priority 2014, published 2015).
# System: GAD67-, VGluT1-, ChAT-positive neurons and OX42 reactive microglia in the hippocampus
# Assay: Immunohistochemical analysis of GAD67, VGluT1, ChAT, OX42 in hippocampus (Experimental Example 1)
# Assay type: in vivo, rat
# Method: Immunostaining was carried out using antibodies against VGluT1 (diluted 1:500, Chemicon), ChAT (1:500, Chemicon), GFAP (1:1,000, Chemicon), tyrosine hydroxylase (TH, 1:500, Chemicon) and OX42 (CD11b/c, 1:250, Serotec) as primary antibodies instead of the anti-BrdU antibodies used in (4). The other process was the same as in (4), except that incubation was performed at 37° C. for 30 minutes in 2 N HCl.
# In the immunohistochemical analysis, the number of the cells immnunostained against each antibody was counted from 5 or 6 hippocampal coronal sections. For each staining analysis, every fifth cryosections of the hippocampal region of brain tissues (AP: bregma −4.5 to −4.3 mm) were taken for immunostaining. The number of the immnunostained cells was represented as an average of number of cells in the hippocampal region of one brain slice.
# The number of the VGluT1- and GAD-positive cells in the brain slice samples 1 week and 4 weeks after the administration of soyasaponin I was presented per microscopic field (×400-VGluT1, ×800-GAD67) and the number of the ChAT-positive cells was presented per each hippocampal region (10-12 confocal laser microscopic fields). 5-11 animals were used per group. Western blotted membranes were analyzed using the multi-gauge, bio-imaging program on LAS-4000 Mini (Fujifilm Life Science, Stamford, Conn., USA). Densitometeric analysis of the expression ratios of VGluT1/β-actin, GAD65/67/β-actin and ChAT/β-actin was normalized to the vehicle group.
# [1] = ibotenic acid injected into entorhinal cortex, no soyasaponin I
# [2] = memory-deficient model rats, soyasaponin I at 5, 10, 20 mg/kg oral
smiles,measurement,setting,value
"N[C@H](C(=O)O)c1cc(=O)[nH]o1 [IBO, Ibotenic acid]",ChAT-positive cells in the hippocampus relative to Sham,[1],52.07 ± 7.38%
same,GAD67-positive cells in the hippocampus relative to Sham,[1],43.02 ± 3.72%
same,VGluT1-positive cells in the hippocampus relative to Sham,[1],72.44 ± 3.86%
same,Number of ChAT-positive cells in the hippocampus,[2],7.30±1.32 cells
same,Number of GAD67-positive cells,[2],3.81±0.63 cells per hippocampal slice
